Experimental data reported in PubChem BioAssay AID1919006 (Molecular Pharmacology Branch, DTP, NCI, 2023).
“And” between values parts separate entries of the source, which are not always exact repeats. Identical values can stand only once.

Tested on: 885512-296-R-J2-PDC complex spheroid growth, % test/control
Assay: Anticancer human tumor 885512-296-R-J2-PDC patient-derived breast carcinoma cell line growth inhibition [AhR]
Details: for viability, T/C: stronger effect = lower value; active = viability on the fitted dose curve at most 10% of control; inactive = the rest
Summary of the method: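 Complex tumor spheroids co-cultured with HUVEC and human MSC stroma; AhR antagonists tested in combination with standard-of-care and investigational agents. Top concentration at or near clinical Cmax (else 10 microM), half-log dilutions; growth expressed as percent test/control.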

[1] = curve of first compound, second compound 0.1 µM
[2] = curve of first compound, second compound 0.316 µM
[3] = curve of first compound, second compound 1 µM
[4] = curve of first compound, second compound 3.16 µM
[5] = curve of first compound, second compound 10 µM
[6] = second compound 0.1 µM, first compound 0.000949 µM
[7] = second compound 0.1 µM, first compound 0.003 µM
[8] = second compound 0.1 µM, first compound 0.00949 µM
[9] = second compound 0.1 µM, first compound 0.03 µM
[10] = second compound 0.1 µM, first compound 0.0949 µM
[11] = second compound 0.1 µM, first compound 0.3 µM
[12] = second compound 0.316 µM, first compound 0.000949 µM
[13] = second compound 0.316 µM, first compound 0.003 µM
[14] = second compound 0.316 µM, first compound 0.00949 µM
[15] = second compound 0.316 µM, first compound 0.03 µM
[16] = second compound 0.316 µM, first compound 0.0949 µM
[17] = second compound 0.316 µM, first compound 0.3 µM
[18] = second compound 1 µM, first compound 0.000949 µM
[19] = second compound 1 µM, first compound 0.003 µM
[20] = second compound 1 µM, first compound 0.00949 µM
[21] = second compound 1 µM, first compound 0.03 µM
[22] = second compound 1 µM, first compound 0.0949 µM
[23] = second compound 1 µM, first compound 0.3 µM
[24] = second compound 3.16 µM, first compound 0.000949 µM
[25] = second compound 3.16 µM, first compound 0.003 µM
[26] = second compound 3.16 µM, first compound 0.00949 µM
[27] = second compound 3.16 µM, first compound 0.03 µM
[28] = second compound 3.16 µM, first compound 0.0949 µM
[29] = second compound 3.16 µM, first compound 0.3 µM
[30] = second compound 10 µM, first compound 0.000949 µM
[31] = second compound 10 µM, first compound 0.003 µM
[32] = second compound 10 µM, first compound 0.00949 µM
[33] = second compound 10 µM, first compound 0.03 µM
[34] = second compound 10 µM, first compound 0.0949 µM
[35] = second compound 10 µM, first compound 0.3 µM
[36] = second compound 0.1 µM, first compound 0.0316 µM
[37] = second compound 0.1 µM, first compound 0.1 µM
[38] = second compound 0.1 µM, first compound 0.316 µM
[39] = second compound 0.1 µM, first compound 1 µM
[40] = second compound 0.316 µM, first compound 0.0316 µM
[41] = second compound 0.316 µM, first compound 0.1 µM
[42] = second compound 0.316 µM, first compound 0.316 µM
[43] = second compound 0.316 µM, first compound 1 µM
[44] = second compound 1 µM, first compound 0.0316 µM
[45] = second compound 1 µM, first compound 0.1 µM
[46] = second compound 1 µM, first compound 0.316 µM
[47] = second compound 1 µM, first compound 1 µM
[48] = second compound 3.16 µM, first compound 0.0316 µM
[49] = second compound 3.16 µM, first compound 0.1 µM
[50] = second compound 3.16 µM, first compound 0.316 µM
[51] = second compound 3.16 µM, first compound 1 µM
[52] = second compound 10 µM, first compound 0.0316 µM
[53] = second compound 10 µM, first compound 0.1 µM
[54] = second compound 10 µM, first compound 0.316 µM
[55] = second compound 10 µM, first compound 1 µM
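Also: spheroids exposed to compounds for seven days.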

CCc1c2c(nc3ccc(O)cc13)-c1cc3c(c(=O)n1C2)COC(=O)[C@]3(O)CC + Cc1cncc(-c2nc(NCCc3c[nH]c4ccccc34)c3ncn(C(C)C)c3n2)c1
active: viability, T/C [7] 6.62% | viability, T/C [8] 6.47% | viability, T/C [9] 4.7% | viability, T/C [10] 3.05% | viability, T/C [11] 1.25% | viability, T/C [13] 8.06% | viability, T/C [14] 6.14% | viability, T/C [15] 3.21% | viability, T/C [16] 2.78% | viability, T/C [17] 2.11% | viability, T/C [19] 10.2% | viability, T/C [20] 6.69% | viability, T/C [21] 3.66% | viability, T/C [22] 3.03% | viability, T/C [23] 1.71% | viability, T/C [26] 8.43% | viability, T/C [27] 4.39% | viability, T/C [28] 2.48% | viability, T/C [29] 2.2% | viability, T/C [31] 10.6% | viability, T/C [32] 5.11% | viability, T/C [33] 2.46% | viability, T/C [34] 1.12% | viability, T/C [35] 0.78%
inactive: viability, T/C [6] 17.1% | viability, T/C [12] 13.4% | viability, T/C [18] 13.7% | viability, T/C [24] 14.3% | viability, T/C [25] 9.78% | viability, T/C [30] 15.4%
< 0.949 nM: IC50 [1] | IC50 [2] | IC50 [3] | IC50 [4] | IC50 [5]

Nc1ncn(C2CC(O)C(CO)O2)c(=O)n1 (configuration not stated) + CC(CO)NC(=O)c1cc(-c2ccc(Cl)cc2)nn(-c2cnn(C)c2)c1=O
878 nM: IC50 [3]
793 nM: IC50 [1]
inactive: viability, T/C (second compound 0.1 µM, first compound 0.00316 µM) 94.9% | viability, T/C (second compound 0.1 µM, first compound 0.01 µM) 94.5% | viability, T/C [36] 85.5% | viability, T/C [37] 89% | viability, T/C [38] 76.3% | viability, T/C [39] 43% | viability, T/C (second compound 0.316 µM, first compound 0.00316 µM) 81.8% | viability, T/C (second compound 0.316 µM, first compound 0.01 µM) 88.4% | viability, T/C [40] 91.5% | viability, T/C [41] 101% | viability, T/C [42] 80.8% | viability, T/C [43] 46.6% | viability, T/C (second compound 1 µM, first compound 0.00316 µM) 95.4% | viability, T/C (second compound 1 µM, first compound 0.01 µM) 104% | viability, T/C [44] 90.5% | viability, T/C [45] 92.9% | viability, T/C [46] 77.7% | viability, T/C [47] 46% | viability, T/C (second compound 3.16 µM, first compound 0.00316 µM) 97.8% | viability, T/C (second compound 3.16 µM, first compound 0.01 µM) 95% | viability, T/C [48] 82.7% | viability, T/C [49] 78.8% | viability, T/C [50] 88.9% | viability, T/C [51] 56.4% | viability, T/C (second compound 10 µM, first compound 0.00316 µM) 88.9% | viability, T/C (second compound 10 µM, first compound 0.01 µM) 92.5% | viability, T/C [52] 84.1% | viability, T/C [53] 79.7% | viability, T/C [54] 82.3% | viability, T/C [55] 62.1%
> 1000 nM: IC50 [4] | IC50 [5]
892 nM: IC50 [2]

CCc1c2c(nc3ccc(O)cc13)-c1cc3c(c(=O)n1C2)COC(=O)[C@]3(O)CC + Cc1ccccc1N=Nc1ccc(NC(=O)c2ccnn2C)c(C)c1
inactive: viability, T/C [6] 15.3% | viability, T/C [12] 17.7% | viability, T/C [18] 16.8% | viability, T/C [24] 17.2% | viability, T/C [30] 14.9%
< 0.949 nM: IC50 [1] | IC50 [2] | IC50 [3] | IC50 [4] | IC50 [5]
active: viability, T/C [7] 7.41% | viability, T/C [8] 6.43% | viability, T/C [9] 4.14% | viability, T/C [10] 1.83% | viability, T/C [11] 1.03% | viability, T/C [13] 7.53% | viability, T/C [14] 5.71% | viability, T/C [15] 3.77% | viability, T/C [16] 1.78% | viability, T/C [17] 1.57% | viability, T/C [19] 6.58% | viability, T/C [20] 5.11% | viability, T/C [21] 4.84% | viability, T/C [22] 2.6% | viability, T/C [23] 1.23% | viability, T/C [25] 6.69% | viability, T/C [26] 5.43% | viability, T/C [27] 4.44% | viability, T/C [28] 2.64% | viability, T/C [29] 1.47% | viability, T/C [31] 7.42% | viability, T/C [32] 5.87% | viability, T/C [33] 3.54% | viability, T/C [34] 2.17% | viability, T/C [35] 1.29%

COc1cc(C2c3cc4c(cc3C(OC3OC5COC(C)OC5C(O)C3O)C3COC(=O)C23)OCO4)cc(OC)c1O (configuration not stated) + Cc1cncc(-c2nc(NCCc3c[nH]c4ccccc34)c3ncn(C(C)C)c3n2)c1
551 nM: IC50 [1]
395 nM: IC50 [3]
170 nM: IC50 [4]
active: viability, T/C (second compound 0.1 µM, first compound 10 µM) 8.99% | viability, T/C (second compound 0.316 µM, first compound 10 µM) 8.12% | viability, T/C (second compound 1 µM, first compound 3.16 µM) 11.2% | viability, T/C (second compound 1 µM, first compound 10 µM) 8.42% | viability, T/C (second compound 3.16 µM, first compound 10 µM) 9.12% | viability, T/C (second compound 10 µM, first compound 10 µM) 6.83%
inactive: viability, T/C [36] 104% | viability, T/C [37] 92.2% | viability, T/C [38] 75% | viability, T/C [39] 23.7% | viability, T/C (second compound 0.1 µM, first compound 3.16 µM) 10.6% | viability, T/C [40] 104% | viability, T/C [41] 101% | viability, T/C [42] 72.8% | viability, T/C [43] 32.1% | viability, T/C (second compound 0.316 µM, first compound 3.16 µM) 10.5% | viability, T/C [44] 90.2% | viability, T/C [45] 78% | viability, T/C [46] 59.3% | viability, T/C [47] 17.5% | viability, T/C [48] 64.9% | viability, T/C [49] 55.4% | viability, T/C [50] 42% | viability, T/C [51] 15.6% | viability, T/C (second compound 3.16 µM, first compound 3.16 µM) 10.7% | viability, T/C [52] 18.5% | viability, T/C [53] 17.6% | viability, T/C [54] 14.2% | viability, T/C [55] 14.1% | viability, T/C (second compound 10 µM, first compound 3.16 µM) 10.2%
601 nM: IC50 [2]
< 31.6 nM: IC50 [5]

CC(C)CC(NC(=O)C(Cc1ccccc1)NC(=O)c1cnccn1)B(O)O (configuration not stated) + Cc1ccccc1N=Nc1ccc(NC(=O)c2ccnn2C)c(C)c1
6.14 nM: IC50 [4]
active: viability, T/C [9] 1.3% | viability, T/C [10] 0.26% | viability, T/C [11] 0.15% | viability, T/C [15] 1.13% | viability, T/C [16] 0.18% | viability, T/C [17] 0.13% | viability, T/C [21] 1.27% | viability, T/C [22] 0.5% | viability, T/C [23] 0.13% | viability, T/C [27] 1.47% | viability, T/C [28] 0.16% | viability, T/C [29] 0.14% | viability, T/C [33] 1.46% | viability, T/C [34] 0.3% | viability, T/C [35] 0.18%
6.58 nM: IC50 [1]
6.29 nM: IC50 [3]
inactive: viability, T/C [6] 96.7% | viability, T/C [7] 105% | viability, T/C [8] 26.3% | viability, T/C [12] 115% | viability, T/C [13] 122% | viability, T/C [14] 26.6% | viability, T/C [18] 111% | viability, T/C [19] 101% | viability, T/C [20] 21.8% | viability, T/C [24] 82% | viability, T/C [25] 94.2% | viability, T/C [26] 26.8% | viability, T/C [30] 58% | viability, T/C [31] 50.3% | viability, T/C [32] 25.8%
3.21 nM: IC50 [5]
7.08 nM: IC50 [2]

COc1cc(C2c3cc4c(cc3C(OC3OC5COC(C)OC5C(O)C3O)C3COC(=O)C23)OCO4)cc(OC)c1O (configuration not stated)
inactive: viability, T/C (compound 0.0316 µM) 107% and 84.7% and 91.2% | viability, T/C (compound 0.1 µM) 96% and 92.5% and 87.4% | viability, T/C (compound 0.316 µM) 78.1% and 72.5% and 59.1% | viability, T/C (compound 1 µM) 29.6% and 44.8% and 14.3%
active: viability, T/C (compound 10 µM) 8.19% and 5.47% and 7.82%
10.7% and 9.52% and 9.14%: viability, T/C (compound 3.16 µM)
613 nM and 774 nM and 399 nM: IC50 (curve of compound)
